From PubChem BioAssay (NCI)
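Cultured in 96-well plates, cells were exposed to test compound for 48 hours across five concentrations. GI50 is the concentration that inhibits growth by half. TGI: total growth inhibition.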

Assays:
Test in all cases: growth of human tumour cells (NCI), 48 h
HS 578T breast = tested on: HS 578T breast
786-0 renal = tested on: 786-0 renal
HT29 colon = tested on: HT29 colon
SW-620 colon = tested on: SW-620 colon
HOP-62 NSCLC = tested on: HOP-62 NSCLC
DU-145 prostate = tested on: DU-145 prostate
MALME-3M melanoma = tested on: MALME-3M melanoma
RPMI-8226 leukemia = tested on: RPMI-8226 leukemia
SK-OV-3 ovarian = tested on: SK-OV-3 ovarian
NCI-H226 lung = tested on: NCI-H226 lung
HCC-2998 colon = tested on: HCC-2998 colon
SR leukemia = tested on: SR leukemia
COLO 205 colon = tested on: COLO 205 colon
OVCAR-4 ovarian = tested on: OVCAR-4 ovarian
HL-60(TB) leukemia = tested on: HL-60(TB) leukemia
MCF7 breast = tested on: MCF7 breast
U251 CNS = tested on: U251 CNS
M14 melanoma = tested on: M14 melanoma
CAKI-1 renal = tested on: CAKI-1 renal
MDA-MB-231 breast = tested on: MDA-MB-231 breast
SK-MEL-28 melanoma = tested on: SK-MEL-28 melanoma
SK-MEL-2 melanoma = tested on: SK-MEL-2 melanoma
UACC-257 melanoma = tested on: UACC-257 melanoma
SN12C renal = tested on: SN12C renal
NCI-H522 lung = tested on: NCI-H522 lung
NCI-H23 lung = tested on: NCI-H23 lung
SNB-19 CNS = tested on: SNB-19 CNS
CCRF-CEM leukemia = tested on: CCRF-CEM leukemia
OVCAR-3 ovarian = tested on: OVCAR-3 ovarian
HCT-15 colon = tested on: HCT-15 colon
A498 renal = tested on: A498 renal
MOLT-4 leukemia = tested on: MOLT-4 leukemia
IGROV1 ovarian = tested on: IGROV1 ovarian
SF-295 CNS = tested on: SF-295 CNS
NCI-H460 lung = tested on: NCI-H460 lung
T-47D breast = tested on: T-47D breast
SNB-75 CNS = tested on: SNB-75 CNS
A549 NSCLC = tested on: A549 NSCLC
KM12 colon = tested on: KM12 colon
LOX IMVI melanoma = tested on: LOX IMVI melanoma
OVCAR-5 ovarian = tested on: OVCAR-5 ovarian
BT-549 breast = tested on: BT-549 breast
ACHN renal = tested on: ACHN renal
RXF 393 renal = tested on: RXF 393 renal
NCI/ADR-RES ovarian = tested on: NCI/ADR-RES ovarian
SF-268 CNS = tested on: SF-268 CNS
EKVX NSCLC = tested on: EKVX NSCLC
HCT-116 colon = tested on: HCT-116 colon
MDA-MB-435 = tested on: MDA-MB-435
OVCAR-8 ovarian = tested on: OVCAR-8 ovarian
SK-MEL-5 melanoma = tested on: SK-MEL-5 melanoma
TK-10 renal = tested on: TK-10 renal
SF-539 CNS = tested on: SF-539 CNS
K-562 leukemia = tested on: K-562 leukemia
UO-31 renal = tested on: UO-31 renal
UACC-62 melanoma = tested on: UACC-62 melanoma
PC-3 prostate = tested on: PC-3 prostate
HOP-92 NSCLC = tested on: HOP-92 NSCLC

## O=C(Nc1cccc(-c2nc(-c3ccc(NC(=O)c4cccnc4)cc3Cl)no2)c1)Nc1ccc(NC(=O)C2CC2)c(C(F)(F)F)c1
HS 578T breast
  GI50: 324 nM
  TGI: 1290 nM
786-0 renal
  GI50: 994 nM
  TGI: 3110 nM
HT29 colon
  GI50: 336 nM
  TGI: 1430 nM
SW-620 colon
  GI50: 345 nM
  TGI: 1510 nM
HOP-62 NSCLC
  GI50: 361 nM
  TGI: 1800 nM
DU-145 prostate
  GI50: 435 nM
  TGI: 4210 nM
MALME-3M melanoma
  GI50: 240 nM
  TGI: 808 nM
RPMI-8226 leukemia
  GI50: 303 nM
  TGI: 1100 nM
SK-OV-3 ovarian
  GI50: 1760 nM
  TGI: 3890 nM
NCI-H226 lung
  GI50: 562 nM
  TGI: 1960 nM
HCC-2998 colon
  GI50: 689 nM
  TGI: 2060 nM
SR leukemia
  GI50: 96.3 nM
  TGI: 962 nM
COLO 205 colon
  GI50: 380 nM
  TGI: 1610 nM
OVCAR-4 ovarian
  GI50: 565 nM
  TGI: 1830 nM
HL-60(TB) leukemia
  GI50: 259 nM
  TGI: 997 nM
MCF7 breast
  GI50: 228 nM
  TGI: 1220 nM
U251 CNS
  GI50: 290 nM
  TGI: 1020 nM
M14 melanoma
  GI50: 307 nM
  TGI: 1280 nM
CAKI-1 renal
  GI50: 437 nM
  TGI: 1800 nM
MDA-MB-231 breast
  GI50: 323 nM
  TGI: 1260 nM
SK-MEL-28 melanoma
  GI50: 559 nM
  TGI: 1710 nM
SK-MEL-2 melanoma
  GI50: 1140 nM
  TGI: 2980 nM
UACC-257 melanoma
  GI50: 1330 nM
  TGI: 3490 nM
SN12C renal
  GI50: 415 nM
  TGI: 1660 nM
NCI-H522 lung
  GI50: 349 nM
  TGI: 1760 nM
NCI-H23 lung
  GI50: 411 nM
  TGI: 1570 nM
SNB-19 CNS
  GI50: 381 nM
  TGI: 1900 nM
CCRF-CEM leukemia
  GI50: 270 nM
  TGI: 1900 nM
OVCAR-3 ovarian
  GI50: 315 nM
  TGI: 1100 nM
HCT-15 colon
  GI50: 784 nM
  TGI: 5620 nM
A498 renal
  GI50: 161 nM
  TGI: 1890 nM
MOLT-4 leukemia
  GI50: 288 nM
  TGI: 1020 nM
IGROV1 ovarian
  GI50: 258 nM
  TGI: 830 nM
SF-295 CNS
  GI50: 271 nM
  TGI: 752 nM
NCI-H460 lung
  GI50: 343 nM
  TGI: 1130 nM
T-47D breast
  GI50: 535 nM
  TGI: 2400 nM
SNB-75 CNS
  GI50: 224 nM
  TGI: 806 nM
A549 NSCLC
  GI50: 429 nM
  TGI: 4760 nM
KM12 colon
  GI50: 376 nM
  TGI: 1750 nM
LOX IMVI melanoma
  GI50: 174 nM
  TGI: 388 nM
OVCAR-5 ovarian
  GI50: 446 nM
  TGI: 1710 nM
BT-549 breast
  GI50: 1070 nM
  TGI: 3020 nM
ACHN renal
  GI50: 2070 nM
  TGI: 13200 nM
RXF 393 renal
  GI50: 247 nM
  TGI: 741 nM
NCI/ADR-RES ovarian
  GI50: 22200 nM
  TGI: > 100000 nM
SF-268 CNS
  GI50: 1070 nM
  TGI: 4830 nM
EKVX NSCLC
  GI50: 997 nM
  TGI: 5110 nM
HCT-116 colon
  GI50: 303 nM
  TGI: 1280 nM
MDA-MB-435
  GI50: 126 nM
  TGI: 381 nM
OVCAR-8 ovarian
  GI50: 449 nM
  TGI: 3100 nM
SK-MEL-5 melanoma
  GI50: 381 nM
  TGI: 1400 nM
TK-10 renal
  GI50: 1920 nM
  TGI: 5460 nM
SF-539 CNS
  GI50: 226 nM
  TGI: 655 nM
K-562 leukemia
  GI50: 156 nM
  TGI: 10700 nM
UO-31 renal
  GI50: 1610 nM
  TGI: 5450 nM
UACC-62 melanoma
  GI50: 317 nM
  TGI: 1570 nM
PC-3 prostate
  GI50: 226 nM
  TGI: 790 nM
HOP-92 NSCLC
  GI50: 522 nM
  TGI: 1330 nM
